These results are taken from US20230129866A1 (PureTech LYT 100, Inc., priority 2020, published 2023).

SMILES strings stand for the structures.

The nature of data set [1]: 91-day repeat dose oral toxicity and toxicokinetics study in rats. To be noted: for Ratio of exposure (AUC), Group 4 (LYT-100 at 750 mg/kg) analyte / Group 5 (SD-559 at 750 mg/kg) analyte: LYT-100/SD-559, SD-790/SD-788, SD-1051/SD-1050, SD-789 Group 4/SD-789 Group 5; for Dose proportionality of AUC0-24 over 250 to 750 mg/kg / Dose proportionality of Cmax over 250 to 750 mg/kg: rats dosed with SD-560, Groups 2 to 4, general statement.
Method: The original male TK animals received 1000 mg/kg of SD-559 on Day 1 and continued on study. The protocol was amended to add additional TK male animals in Group 6 for Day 1 collection of TK samples at 875 mg/kg.
Blood samples were collected from 3 subsets of 3 animals/sex on Day 1 and Day 28 at pre-dose, 0.25, 0.5, 1, 2, 4. 8 and 24 hours (hr) post-dose for groups 2 to 6 and from one subset of 3 animals/sex at 0.25 hr post-dose for the vehicle group (group 1). […] Non-compartmental analysis (NCA) of plasma concentration data was conducted using Phoenix® WinNonlin®, version 8.0.

The nature of data set [2]: Single 801 mg dose, double-blinded, cross-over study of LYT-100 vs pirfenidone in healthy volunteers (PK and safety). Particulars: for Cmax (ng/mL), Mean / AUC0-t (hr*ng/mL), Mean / tmax (hr), Median / % AUC extrap, Mean / AUC(inf) (hr*ng/mL), Mean / Kel (1/hr), Mean / t1/2 (hr), Mean: fed; for Cmax (ng/mL), Mean: healthy volunteers; for Cmax (ng/mL), Mean / AUC0-t (hr*ng/mL), Mean / tmax (hr), Median: n = 24.
From the text: Following screening, eligible healthy volunteer subjects were admitted to a single clinical study site and were randomized to 1 of 2 treatment sequences. […] In each period, a standardized breakfast was provided to subjects prior to administration of study drug (to compare the PK profiles in the clinically relevant fed state) and plasma samples were collected over a 48-hour period after dosing for evaluation of PK. Dosing between the 2 periods was separated by a minimum of 7 days. Subjects completed the study upon completion of the 48-hour post-dose assessments following dosing period 2.
All capsules were identical in size, shape, and external color.

A short description of data set [3]: Phase 1 multiple ascending dose (MAD) study Part 1, healthy volunteers (PK and safety). Particulars: for Accumulation ratios (AUC96-108/AUC0-12) across all dose groups: 100 mg, 250 mg, 500 mg, and 750 mg BID, Cohorts 1-4, FIG. 19; for Average ratio to the parent (M/P) by AUC: range in brackets.
Method: Up to 5 dosing cohorts are planned in Part 1.
Additional cohorts and intermediate doses may be selected in lieu of predefined doses as noted and in accordance with safety and tolerability responses, but doses will not exceed 1000 mg BID or a total daily dose of 2000 mg.
A standardised lunch will be served ≥4 h post breakfast and ≥4 h prior to dinner. An evening snack will be served ≥3 h following evening study medication administration. No additional fluids will be allowed during the 1 h pre- and post-doses. On Day 6, subjects will replicate mealtimes as scheduled on Day 1-5.
Plasma PK parameters (non-compartmental or compartmental analysis as appropriate) will include, but are not limited to: • Following single dose: Tmax, tlag, Cmax, AUC0-4, AUC0-last, t1/2, AUC0-inf, lambda z, %AUCext, CL/F, Vz/F, Cmax/D, AUC0-last/D, AUC0-inf/D and MRT (D is dose) • After repeated doses: Ctrough, Ctrough/D • Following repeated doses on last day: Tmax, Cmax, Cavg, tlag, t1/2, AUC0-4, AUC0-last; AUC0-inf, lambda z, %AUCext, CLss/F, Vzss/F, MRT, PTF, Rac(AUC), Rac(Cmax), Cmax/D, AUClast/D, AUC0-inf/D and Rae (accumulation ratio).
Where [4] appears, read: Treatment = LYT-100, single 801 mg oral dose.
The mark [5] stands for this setting: Treatment = LYT-100, single 801 mg oral dose, n = 24 (LYT-110 n = 23).
[6] abbreviates: after LYT-100 801 mg, metabolite/LYT-100.
The mark [7] stands for this setting: after LYT-100 801 mg, metabolite/LYT-100, molecular weight corrected.
Setting [8] is: after Pirfenidone (LYT-101) 801 mg, metabolite/LYT-101.
Where [9] appears, read: after Pirfenidone (LYT-101) 801 mg, metabolite/LYT-101, molecular weight corrected.
The mark [10] stands for this setting: Treatment = Pirfenidone, single 801 mg oral dose.
The mark [11] stands for this setting: Treatment = Pirfenidone, single 801 mg oral dose, n = 24 (LYT-111 n = 19).

As for `[2H]C([2H])(O)c1ccc(=O)n(-c2ccccc2)c1` [SD-790, d2-5-hydroxymethyl-pirfenidone], the “Ratio of exposure (AUC), Group 4 (LYT-100 at 750 mg/kg) analyte / Group 5 (SD-559 at 750 mg/kg) analyte” value in data set [1] (Day 1, Female rats) stood at 2.50. In addition, the “Ratio of exposure (AUC), Group 4 (LYT-100 at 750 mg/kg) analyte / Group 5 (SD-559 at 750 mg/kg) analyte” value in data set [1] (Day 1, Male rats) is listed as 2.22. For the same compound, the “Ratio of exposure (AUC), Group 4 (LYT-100 at 750 mg/kg) analyte / Group 5 (SD-559 at 750 mg/kg) analyte” value in data set [1] (Day 28, Female rats) came to 2.59. For the same compound, the “Ratio of exposure (AUC), Group 4 (LYT-100 at 750 mg/kg) analyte / Group 5 (SD-559 at 750 mg/kg) analyte” value in data set [1] (Day 28, Male rats) stood at 2.54. Also, in data set [1] (male rat Day 1 vs human), the “Cmax in rat relative to human” value was around 1825 fold. Moreover, in data set [1] (male rat Day 28 vs human), the “Exposure in rats relative to humans after 28 days of daily dosing” value is recorded as around 1600 fold. For the same compound, the “Exposure (AUC) in rat relative to human” value in data set [1] (male rats 750 mg/kg Day 1 vs human single 801 mg dose) is given as “about 1250 fold”. In data set [1], the “Dose proportionality of AUC0-24 over 250 to 750 mg/kg” value is reported as “dose proportional” and the “Dose proportionality of Cmax over 250 to 750 mg/kg” value is on record as “dose proportional”. In addition, the “Exposure and Cmax vs the non-deuterated corresponding metabolite (SD-788) from SD-559” value in data set [1] (rats, 750 mg/kg each, all days, both genders) is given as “almost twice”. For the same compound, in data set [2] (setting [4]), the “Cmax (ng/mL), Mean” value is given as 20.6 ng/mL; the “AUC0-t (hr*ng/mL), Mean” value is 111 ng·h/mL; the “tmax (hr), Median” value turned out to be 2.50 h. In addition, in data set [2] (setting [5]), the “% AUC extrap, Mean” value was determined as 10.1%; the “AUC(inf) (hr*ng/mL), Mean” value amounted to 124 ng·h/mL; the “Kel (1/hr), Mean” value was 0.294 h⁻¹; the “t1/2 (hr), Mean” value was determined as 2.76 h. In data set [2] (setting [6]), the “Metabolite/Parent Ratio, AUC0-∞, Median” value was found to be 0.2% and the “Metabolite/Parent Ratio, Cmax, Median” value is listed as 0.2%. In data set [2] (setting [7]), the “Metabolite/Parent Ratio, AUC0-∞, Mean” value is 0.2% and the “Metabolite/Parent Ratio, Cmax, Mean” value was 0.2%. In data set [3], the “Accumulation ratios (AUC96-108/AUC0-12) across all dose groups” value is recorded as around 1. For the same compound, the “Average ratio to the parent (M/P) by AUC” value in data set [3] (Cohort 4, 750 mg BID) is reported as 0.0025 (0.0020-0.0029). Moreover, the “Average ratio to the parent (M/P) by AUC” value in data set [3] (Cohort 6, 1000 mg BID) is on record as 0.0028 (0.0018-0.0038).
Turning to `Cc1ccc(=O)n(-c2ccc(O)cc2)c1` [SD-1050, 4′-hydroxy-pirfenidone], in data set [2] (setting [8]), the “Metabolite/Parent Ratio, Cmax, Median” value worked out at 0.0%. In addition, in data set [2] (setting [9]), the “Metabolite/Parent Ratio, Cmax, Mean” value is on record as 0.0%.
As to `O=c1ccc(CO)cn1-c1ccccc1` [SD-788, 5-hydroxymethyl-pirfenidone], the “Formation greater in terms of overall systemic exposure (AUC) after administration of LYT-100” value in data set [2] (LYT-100 vs pirfenidone, single 801 mg dose) is “approximately 50%”. For the same compound, in data set [2] (setting [10]), the “Cmax (ng/mL), Mean” value was 17.1 ng/mL; the “AUC0-t (hr*ng/mL), Mean” value came out at 75.8 ng·h/mL; the “tmax (hr), Median” value stood at 2.50 h. Further, in data set [2] (setting [11]), the “% AUC extrap, Mean” value was 10.3%; the “AUC(inf) (hr*ng/mL), Mean” value was found to be 89.7 ng·h/mL; the “Kel (1/hr), Mean” value stood at 0.367 h⁻¹; the “t1/2 (hr), Mean” value turned out to be 2.04 h. In data set [2] (setting [8]), the “Metabolite/Parent Ratio, AUC0-∞, Median” value is given as 0.2% and the “Metabolite/Parent Ratio, Cmax, Median” value was found to be 0.2%. Besides, in data set [2] (setting [9]), the “Metabolite/Parent Ratio, AUC0-∞, Mean” value was 0.2% and the “Metabolite/Parent Ratio, Cmax, Mean” value is recorded as 0.2%.
With `[2H]C([2H])([2H])c1ccc(=O)n(-c2ccc(O)cc2)c1` [SD-1051, d3-4′-hydroxy-pirfenidone], in data set [1] (Day 1, Female rats), the “Ratio of exposure (AUC), Group 4 (LYT-100 at 750 mg/kg) analyte / Group 5 (SD-559 at 750 mg/kg) analyte” value is reported as 21.77. Also, the “Ratio of exposure (AUC), Group 4 (LYT-100 at 750 mg/kg) analyte / Group 5 (SD-559 at 750 mg/kg) analyte” value in data set [1] (Day 1, Male rats) is 34.51. Moreover, in data set [1] (Day 28, Female rats), the “Ratio of exposure (AUC), Group 4 (LYT-100 at 750 mg/kg) analyte / Group 5 (SD-559 at 750 mg/kg) analyte” value stood at 38.04. Also, in data set [1], the “Dose proportionality of AUC0-24 over 250 to 750 mg/kg” value is on record as “increased dose proportionally on Day 1” and the “Dose proportionality of Cmax over 250 to 750 mg/kg” value is “less than dose proportional”. Besides, the “Quantifiability in human plasma” value in data set [2] (after LYT-100) is given as “not quantifiable”. In data set [2] (setting [6]), the “Metabolite/Parent Ratio, AUC0-∞, Median” value amounted to 0.1% and the “Metabolite/Parent Ratio, Cmax, Median” value stood at 0.1%. In addition, in data set [2] (setting [7]), the “Metabolite/Parent Ratio, AUC0-∞, Mean” value came to 0.1% and the “Metabolite/Parent Ratio, Cmax, Mean” value is on record as 0.1%. The “Accumulation ratios (AUC96-108/AUC0-12) across all dose groups” value in data set [3] was around 1. Also, the “Average ratio to the parent (M/P) by AUC” value in data set [3] (Cohort 4, 750 mg BID) was 0.0017 (0.0012-0.0022). Also, the “Average ratio to the parent (M/P) by AUC” value in data set [3] (Cohort 6, 1000 mg BID) was 0.0037 (0.0030-0.0058).
